From patent publication US4659726A, “Novel 4,5-Bis (4-methoxyphenyl)-2-(pyrrol-2-yl) thiazoles and pharmaceutical composition containing the same” (Kanebo, Ltd., priority 1984, dated 1987)

Tests used:
[1] = system: Platelet aggregation (collagen); test: Platelet aggregation inhibitory activity, ex vivo after oral administration to guinea pigs, collagen as aggregating agent; type: in vivo, Hartley strain male guinea pigs; conditions: Cavia porcellus, oral, guinea pig, blood collected after 3 hours, 100 μg/ml collagen suspension (50 μl), 50% inhibitory rate, read-out: Platelet aggregation inhibitory activity Collagen ED50
Description: (§1) Hartley strain male guinea pigs (weighing 300-350 g, one group: three animals) were fasted overnight, and to the animals were orally administered a solution or suspension of the test compounds in corn oil-10% arabic gum. […] The citrated blood thus obtained was centrifuged at 1,700 rpm for 10 minutes, and a platelet-rich plasma (PRP) was obtained from the supernatant. After isolating PRP, the remaining blood was further centrifuged at 3,000 rpm for 10 minutes, and a platelet-poor plasma (PPP) was obtained from the supernatant.
(§2) The PRP (450 μl) thus obtained was incubated at 37° C. for 3 minutes, and thereto was added 1.0 mM sodium arachidonate (50 μl) as an aggregating agent, and then the platelet aggregation thereof was measured with Platelet Aggregation Profiler® (Model PAP-3, manufactured by Bio Data Corp.) while using the PPP obtained above as a blank. As a control, as to animals to which no test compound was administered, the platelet aggregation rate was measured likewise.
(§3) The platelet aggregation inhibitory rate was calculated by the following equation. [formula]
Moreover, the above method was repeated except that 100 μg/ml collagen suspension (50 μl) was used as an aggregating agent instead of sodium arachidonate.

[2] = system: Platelet aggregation (arachidonate); test: Platelet aggregation inhibitory activity, ex vivo after oral administration to guinea pigs, sodium arachidonate as aggregating agent; type: in vivo, Hartley strain male guinea pigs; conditions: Cavia porcellus, oral, guinea pig, blood collected after 3 hours, 1.0 mM sodium arachidonate (50 μl), 50% inhibitory rate, read-out: Platelet aggregation inhibitory activity Arachidonate ED50
Description: as §1, §2, §3

in vivo = conditions: mouse, oral, ddy male mice, deaths counted at 10 days, Weil method, read-out: Acute toxicity LD50
Text: ddy male mice (weighing 18-23 g, one group: 5 animals) were fasted overnight, and thereto was orally administered a suspension of the test compounds in 1% arabic gum solution.

Row | Compound | ED50 [1] [mg/kg] | ED50 [2] [mg/kg] | LD50 at 240 h (in vivo) [mg/kg]
1 | COc1ccc(-c2nc(-c3cccn3CC(=O)OCc3ccccc3)sc2-c2ccc(OC)cc2)cc1 [Ex. 31, benzyl 2-[4,5-bis(4-methoxyphenyl)thiazol-2-yl]pyrrole-1-acetate] | 0.16 | 0.11 | > 3000
2 | CCOCn1cccc1-c1nc(-c2ccc(OC)cc2)c(-c2ccc(OC)cc2)s1 [Ex. 36, 4,5-Bis(4-methoxyphenyl)-2-(1-ethoxymethylpyrrol-2-yl)thiazole] | 0.98 | 0.45 | > 3000
3 | CCCOCn1cccc1-c1nc(-c2ccc(OC)cc2)c(-c2ccc(OC)cc2)s1 [Ex. 37, 4,5-Bis(4-methoxyphenyl)-2-(1-n-propoxymethylpyrrol-2-yl)thiazole] | 0.61 | 0.49 | > 3000
4 | CCOCCn1cccc1-c1nc(-c2ccc(OC)cc2)c(-c2ccc(OC)cc2)s1 [Ex. 38, 4,5-bis(4-methoxyphenyl)-2-[1-(2-ethoxyethyl)pyrrol-2-yl]thiazole] | 0.29 | 0.09 | > 3000
5 | C=COCCn1cccc1-c1nc(-c2ccc(OC)cc2)c(-c2ccc(OC)cc2)s1 [Ex. 39, 4,5-bis(4-methoxyphenyl)-2-[1-(2-vinyloxyethyl)pyrrol-2-yl]thiazole] | 0.49 | 0.33 | > 3000
6 | CCSCCn1cccc1-c1nc(-c2ccc(OC)cc2)c(-c2ccc(OC)cc2)s1 [Ex. 40, 4,5-bis(4-methoxyphenyl)-2-[1-(2-ethylthioethyl)pyrrol-2-yl]thiazole] | 0.51 | 0.41 | > 3000
7 | CCOCCCn1cccc1-c1nc(-c2ccc(OC)cc2)c(-c2ccc(OC)cc2)s1 [Ex. 41, 4,5-bis(4-methoxyphenyl)-2-[1-(3-ethoxypropyl)pyrrol-2-yl]thiazole] | 0.35 | 0.3 | > 3000
